Data reported in patent US8536097B2, “4-(4-haloalkyl-3-thiobenzoyl)pyrazoles and use thereof as herbicides” (Bayer Cropscience AG, priority 2010, dated 2013).

What was measured:
Format in all cases: in vivo
Matricaria inodora = assay: Post-emergence herbicidal action against weed plants; conditions: dose 80 g a.c./ha, scored after 3 to 4 weeks
Procedure: (§1) [table] 2. Post-Emergence Herbicidal Action Against Weed Plants Seeds of monocotyledonous and dicotyledonous weed plants are set out in cardboard pots in sandy loam soil, covered with soil, and cultivated under glass under good growth conditions. Two to three weeks after sowing, the trial plants are treated at the three-leaf stage. The compounds according to the invention, formulated as wettable powders or as emulsifiable concentrates, are sprayed onto the surface of the green parts of the plants, at a water application rate of 600 to 800 I/ha (converted). After the trial plants have stood for 3 to 4 weeks under optimum growth conditions under glass, the action of the compounds according to the invention is scored in comparison to compounds disclosed in the prior art.

Avena fatua = assay: Pre-emergence herbicidal action against weed plants; conditions: dose 80 g a.c./ha, scored after 3 to 4 weeks
Source text: (§2) Seeds or rhizome sections of mono- and dicotyledonous weed plants are set out in pots of 9 to 13 cm in diameter, in sandy loam soil, and are covered with soil. The herbicides, formulated as emulsifiable concentrates or dusts, are applied to the surface of the covering earth in the form of aqueous dispersions or suspensions or emulsions, at a water application rate of 300 to 800 I/ha (converted) in different doses. The pots are then maintained under glass under optimum conditions for the further cultivation of the plants. After 3 to 4 weeks under optimum growth conditions under glass, the trial plants are scored for the effect of the compounds according to the invention in comparison to compounds disclosed in the prior art. […] [table]

Cyperus serotinus = assay: as above; conditions: scored after 3 to 4 weeks
Source text: as §2

Viola tricolor [1] = assay: as above; conditions: scored after 3 to 4 weeks
Source text: as §2

Amaranthus retroflexus = assay: Post-emergence herbicidal action against weed plants; conditions: dose 320 g a.c./ha, scored after 3 to 4 weeks
Procedure: as §1

Viola tricolor [2] = assay: as above; conditions: dose 320 g a.c./ha, scored after 3 to 4 weeks
Procedure: as §1

Alopecurus myosuroides = assay: Pre-emergence herbicidal action against weed plants; conditions: dose 320 g a.c./ha, scored after 3 to 4 weeks
Source text: as §2

Setaria viridis = assay: Post-emergence herbicidal action against weed plants; conditions: dose 80 g a.c./ha, scored after 3 to 4 weeks
Procedure: as §1

Cc1c(C(=O)c2cnn(C)c2O)ccc(C(F)(F)F)c1S(C)(=O)=O [1-4, known from WO 2008/125214]
Herbicidal action against MATIN (Matricaria inodora): 50%

Cc1c(C(=O)c2cnn(C)c2O)ccc(C(F)(F)F)c1[S+](C)[O-] (centres unmarked) [1-9, known from WO 2008/125214]
Herbicidal action against AVEFA (Avena fatua): 40%
Herbicidal action against CYPES (Cyperus serotinus; dose 80 g a.c./ha): 50%
Herbicidal action against VIOTR (Viola tricolor [1]; dose 80 g a.c./ha): 60%

Cc1c(C(=O)c2cnn(C)c2O)ccc(C(F)(F)C(F)(F)F)c1[S+](C)[O-] (centres unmarked) [1-153]
Herbicidal action against AVEFA (Avena fatua): 70%
Herbicidal action against CYPES (Cyperus serotinus; dose 80 g a.c./ha): 100%
Herbicidal action against VIOTR (Viola tricolor [1]; dose 80 g a.c./ha): 90%

Cc1c(C(=O)c2cnn(C)c2O)ccc(C(F)(F)C(F)(F)F)c1S(C)(=O)=O [1-161]
Herbicidal action against MATIN (Matricaria inodora): 100%

Cc1nn(C)c(O)c1C(=O)c1ccc(C(F)(F)F)c([S+](C)[O-])c1C (centres unmarked) [3-9, known from WO 2008/125214]
Herbicidal action against VIOTR (Viola tricolor [1]; dose 320 g a.c./ha): 40%
Herbicidal action against AMARE (Amaranthus retroflexus): 50%
Herbicidal action against VIOTR (Viola tricolor [2]): 40%

Cc1nn(C)c(O)c1C(=O)c1ccc(C(F)(F)F)c(S(C)(=O)=O)c1C [3-17, known from WO 2008/125214]
Herbicidal action against ALOMY (Alopecurus myosuroides): 50%
Herbicidal action against CYPES (Cyperus serotinus; dose 320 g a.c./ha): 50%
Herbicidal action against SETVI (Setaria viridis): 60%

Cc1nn(C)c(O)c1C(=O)c1ccc(C(F)(F)C(F)(F)F)c([S+](C)[O-])c1C (centres unmarked) [3-153]
Herbicidal action against VIOTR (Viola tricolor [1]; dose 320 g a.c./ha): 90%
Herbicidal action against AMARE (Amaranthus retroflexus): 80%
Herbicidal action against VIOTR (Viola tricolor [2]): 80%

Cc1nn(C)c(O)c1C(=O)c1ccc(C(F)(F)C(F)(F)F)c(S(C)(=O)=O)c1C [3-161]
Herbicidal action against ALOMY (Alopecurus myosuroides): 90%
Herbicidal action against CYPES (Cyperus serotinus; dose 320 g a.c./ha): 80%
Herbicidal action against SETVI (Setaria viridis): 100%
